Patent publication US20250051315A1, “COMPOUND, ANGIOTENSIN II TYPE 1 RECEPTOR ANTAGONIST AND PHARMACEUTICAL COMPOSITION” (Alchemedicine, Inc., priority 2021, published 2025)

Tests used:
[1] = molecular target: T1, human endothelin A receptor (Homo sapiens, UniProt P25101); assay: Endothelin A receptor inhibitory effect (aequorin luminescence, endothelin at EC80); type: cell-based; details: CHO-K1-mt aequorin cells expressing human endothelin A receptor, read-out: ETA Receptor Inhibitory Effect
T1 construct: expressed in transfected cells; host or cells: CHO-K1-mt aequorin cells
T1 sequence (P25101 21-427): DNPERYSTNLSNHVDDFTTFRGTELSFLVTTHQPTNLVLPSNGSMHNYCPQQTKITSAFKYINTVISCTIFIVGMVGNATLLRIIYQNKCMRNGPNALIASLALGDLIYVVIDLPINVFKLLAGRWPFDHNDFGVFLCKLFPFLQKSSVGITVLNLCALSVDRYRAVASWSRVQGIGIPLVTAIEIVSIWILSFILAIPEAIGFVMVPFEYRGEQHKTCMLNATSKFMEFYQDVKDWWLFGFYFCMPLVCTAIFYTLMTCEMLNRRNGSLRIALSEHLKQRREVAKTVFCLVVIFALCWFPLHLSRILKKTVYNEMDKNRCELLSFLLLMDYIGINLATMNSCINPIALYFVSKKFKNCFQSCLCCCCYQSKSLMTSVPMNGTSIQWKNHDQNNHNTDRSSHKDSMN
Experimental: The inhibitory effect on endothelin A receptor was studied by the following method.
CHO-K1-mt aequorin cells forced to express human endothelin A receptor (Accession Number: NP_001948.1) were cultured in an antibiotic-free medium for 18 hours and then treated with PBS-EDTA (5 mM EDTA). After centrifugation (2 minutes, 405×g, room temperature), the cells were suspended in assay buffer (DMEM/HAM'S F12 with HEPES+0.1% BSA protease free). 1×10^6 cells/mL of the cells were incubated at room temperature for 4 hours in the presence of Coelenterazin h (Molecular Probes) at a final concentration of 5 μM to confirm the agonist response by endothelin, and determine the concentration of endothelin corresponding to EC 80.
(§1) Then, 50 μL of the cell suspension treated with Coelenterazin h at 10,000 cells/well and 50 μL of assay buffer containing the test substance (final concentration: 0.5% DMSO) were added to a 96-well plate. After 15 minutes, endothelin was added so that the final concentration reached the EC80 concentration, and the receptor activity was measured by the amount of luminescence using FDSS6000 (Hamamatsu Photonics). IC50 values were calculated using XLfit (IDBS).

[2] = molecular target: T2, human angiotensin II type 1 receptor (Homo sapiens, UniProt P30556); assay: Angiotensin II type 1 receptor inhibitory effect (aequorin luminescence, angiotensin II at EC80); type: cell-based; details: CHO-K1-mt aequorin-Gα16 cells expressing human AT1 receptor
T2 construct: expressed in transfected cells; host or cells: CHO-K1-mt aequorin-Gα16 cells
T2 sequence (P30556 1-359): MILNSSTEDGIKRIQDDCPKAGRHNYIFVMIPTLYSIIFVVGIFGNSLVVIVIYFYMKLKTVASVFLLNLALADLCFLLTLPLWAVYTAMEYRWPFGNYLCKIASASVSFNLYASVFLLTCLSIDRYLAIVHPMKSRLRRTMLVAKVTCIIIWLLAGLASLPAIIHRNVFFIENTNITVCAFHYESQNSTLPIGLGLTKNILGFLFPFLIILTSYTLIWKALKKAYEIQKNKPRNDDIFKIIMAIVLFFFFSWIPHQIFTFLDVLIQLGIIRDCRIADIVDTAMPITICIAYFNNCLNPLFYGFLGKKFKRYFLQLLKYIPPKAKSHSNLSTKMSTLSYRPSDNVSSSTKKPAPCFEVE
Experimental: The inhibitory effect on angiotensin II type 1 receptor was studied by the following method.
CHO-K1-mt aequorin-Gα16 cells forced to express human angiotensin II type 1 receptor (Accession Number: NP 000676.1) were cultured in an antibiotic-free medium for 18 hours and then treated with PBS-EDTA (5 mM EDTA). After centrifugation (2 minutes, 405×g, room temperature), the cells were suspended in assay buffer (DMEM/HAM's F12 with HEPES+0.1% BSA protease free).
1×10^6 cells/mL of the cells were incubated at room temperature for 4 hours or more in the presence of Coelenterazin h (Molecular Probes) at a final concentration of 5 µM to confirm the agonist response by angiotensin II, and determine the concentration of angiotensin II corresponding to EC 80.
as §1, with “100 μL of angiotensin II solution” for “endothelin”

[3] = tested on: Angiotensin II-Induced Hypertensive Activity; assay: Suppressive effect on angiotensin II-induced hypertensive activity; type: in vivo; details: anesthetized male Wistar rats; 1 mg/kg intravenously over 10 minutes, then ATII 300 ng/kg i.v.; 20 seconds after ATII; n=3
Experimental: Male Wistar rats aged 8 to 12 weeks underwent catheterization of the trachea for airway management, catheterization of the carotid artery for blood pressure measurement, and catheterization of the femoral vein for angiotensin II (ATII) administration, under analgesic treatment and urethane anesthesia. After confirming that blood pressure and heart rate had stabilized, 1 mg/kg (15 mL/kg) of solvent (PBS) or test substance (the compound of Example 1) adjusted with the solvent was administered intravenously over 10 minutes. Then, ATII (300 ng/kg) was administered intravenously and blood pressure was monitored until 10 minutes after administration. The test was performed with n=3 in each group. For analysis, using 2 minutes before ATII administration as a pre-value, the systolic and diastolic blood pressures at the pre-value and 20 seconds immediately after ATII administration, when the blood pressure is maximum, were determined and the differences (delta values) from the pre-values were calculated. Student's t-test was used to compare the delta values between the solvent administration group and test substance administration group.

Row | IC50 [1] | IC50 [2] | SMILES | Diastolic Blood Pressure, difference (delta value) from pre-value [3] | Systolic Blood Pressure, difference (delta value) from pre-value [3]
1 | 0.001 to 0.1 µM | 0.001 to 0.1 µM | CCCCC1=NC2(CCCC2)C(=O)N1Cc1ccc(-c2ccccc2S(=O)(=O)Nc2noc(C)c2Cl)c2c1COC2 [Example 3, 2-(7-((2-Butyl-4-oxo-1,3-diazaspiro[4,4]nona-1-en-3-yl)methyl)-1,3-dihydroisobenzofuran-4-yl)-N-(4-chloro-5-methylisoxazol-3-yl)benzenesulfonamide] | – | –
2 | > 0.1 µM | ≤ 0.001 µM | CCCCC1=NC2(CCCC2)C(=O)N1Cc1ccc(-c2ccccc2S(=O)(=O)Nc2noc(C)c2C)c2c1COC2 [Example 1, 2-(7-((2-Butyl-4-oxo-1,3-diazaspiro[4,4]nona-1-en-3-yl)methyl)-1,3-dihydroisobenzofuran-4-yl)-N-(4,5-dimethylisoxazol-3-yl)benzenesulfonamide] | 9 ± 5 | 8 ± 3
3 | 0.001 to 0.1 µM | 0.001 to 0.1 µM | CCCCC1=NC2(CCCC2)C(=O)N1Cc1ccc(-c2ccccc2S(=O)(=O)Nc2ncc(C)nc2OC)c2c1COC2 [Example 2, 2-(7-((2-Butyl-4-oxo-1,3-diazaspiro[4,4]nona-1-en-3-yl)methyl)-1,3-dihydroisobenzofuran-4-yl)-N-(3-methoxy-5-methylpyrazin-2-yl)benzenesulfonamide] | – | –
